Assay results: patent US9936705B2, “Biocide formulation for protecting the skin, comprising pentahydrate copper salts and heptahydrate zinc salts” (priority 2014, dated 2018)
Where “and” joins values, the source holds several entries; their conditions need not be identical. Equal values may be shown once.

Tests used:
Assay in all cases: Sensitivity to antimicrobial agents, Kirby-Bauer disk methodology
Assay type in all cases: cell-based
CNS = conditions: clinical bovine mastitis isolates
Protocol: (§1) The following antimicrobial agents were assessed (Oxoid Ltd. Hampshire, England): • Amoxicillin/clavulanic acid (AMC), • Trimethropin/sulfamethoxazole (SXT), • Cefotaxime (CTX), • Gentamicin (GN) and • Neomycin (NE).
(§2) The bacterial specimens were analyzed according to the Kirby-Bauer disk methodology following the recommendations provided by the guidelines of the Clinical Laboratory Standards Institute (CLSI 2012b) and the BSAC standard (Andrews and Trial 2008).
(§3) The microorganisms were incubated in Mueller Hinton agar plates at 35° C. for 18-24 hours in aerobics atmosphere. As quality control E. coli (ATCC 25922) and Staphylococcus aureus (25923) were used. The CLSI cut-off points were used to interpret the susceptibility of all microbial agents. For the determination of the cut-off point value for neomycin (NE), the BSAC standard was applied.

E. coli = conditions: Central Region, clinical bovine mastitis isolates
Protocol: as §1, §2, §3

S. uberis = conditions: Southern Region, clinical bovine mastitis isolates
Protocol: as §1, §2, §3

S. aureus = conditions: Southern Region, clinical bovine mastitis isolates
Protocol: as §1, §2, §3

Row | Compound | Resistant (%) (CNS; Central Region) | Resistant N° (CNS; Central Region) | Resistant (%) (CNS; Southern Region) | Resistant N° (CNS; Southern Region) | Resistant (%) (E. coli) | Resistant N° (E. coli) | Resistant (%) (S. uberis) | Resistant N° (S. uberis) | Resistant (%) (S. uberis; listed as CTK) | Resistant (%) (S. aureus) | Resistant N° (S. aureus)
1 | CO/N=C(\C(=O)N[C@@H]1C(=O)N2C(C(=O)O)=C(COC(C)=O)CS[C@H]12)c1csc(N)n1 [CTX, Cefotaxime] | 0.0% | 0 | 5.9% | 1 | 15.4% | 2 | 23.8% | 5 | 24% | 3.6% | 1
2 | NC[C@@H]1O[C@H](O[C@H]2[C@@H](O)[C@H](O[C@@H]3[C@@H](O)[C@H](N)C[C@H](N)[C@H]3O[C@H]3O[C@H](CN)[C@@H](O)[C@H](O)[C@H]3N)O[C@@H]2CO)[C@H](N)[C@@H](O)[C@@H]1O [Ne, Neomycin] | 15.4% | 2 | 5.9% | 1 | 54% and 53.8% | 7 | 52% and 52.4% | 11 |  | 21.4% | 6
3 | Amoxicillin/clavulanic acid [AMC] | 0.0% | 0 | 0.0% | 0 | 23.0% | 3 | 0.0% | 0 |  | 7.1% | 2
4 | Gentamicin [GN] | 0.0% | 0 | 0.0% | 0 | 15.4% | 2 | 43% and 42.9% | 9 |  | 0.0% | 0
5 | Trimethropin/sulfamethoxazole [SXT] | 0.0% | 0 | 0.0% | 0 | 15.4% | 2 | 0.0% | 0 |  | 3.6% | 1
